Measurements: US12606528B2, “Methods and materials for inhibiting NF-kB activity” (University of Pittsburgh - Of the Commonwealth System of …, priority 2019, dated 2026)

Test system: NF-κB
Experiment: NF-κB assay: THP1-NF-κB-LUC cells, LPS-stimulated secreted luciferase
Assay type: cell-based
Conditions: THP1-NF-κB-LUC cells, LPS-stimulated; read-out: IC50 (NF-κB assay)
Description: FIG. 1 contains line plots showing NF-κB activity of exemplified compounds. 25k THP1-NF-κB-LUC cells were dispensed into 384 well plate (per well). Cells were treated with compounds (2 μM and 0.2 μM) for 2 hours before addition of LPS (10 ng/mL) for 18 hours. Secreted luciferase activity were measured using quant-luc reagents (1 bag of luc reagent dilute to 40 mL, use 10 μL per well). Data were normalized to vehicle control and graphed. Structures of selected exemplified compounds are shown.
FIG. 2 contains heat charts showing NF-κB activity of exemplified compounds as a function of concentration. 25k THP1-NF-κB-LUC cells were dispensed into 384 well plate (per well). Cells were treated with compounds (with serial dilution) for 2 hours before addition of LPS (10 ng/ml) for 18 hours. Secreted luciferase activity were measured using quant-luc reagents (1 bag of luc reagent dilute to 40 mL, use 10 μL per well). Structures of selected exemplified compounds are shown.
25k THP1-NF-κB-LUC cells were dispensed into 384 well plate (per well). Cells were treated with compounds with various concentrations for 2 hours before addition of LPS (10 ng/mL) for 18 hours. Secreted luciferase activity were measured using quant-luc reagents (1 bag of luc reagent dilute to 40 mL, use 10 μL per well). Data were normalized to vehicle control and graphed. Compound IC50 towards inhibiting NF-κB were determined through Prism. Similarly, 10k human PBMCs cells were cultured in 384 well plate (per well). Cells were treated with compounds with various concentrations for 2 hours before addition of LPS (10 ng/ml) for 18 hours, and supernatants were collected and assayed for TNF ELISA. Compound IC50 towards inhibiting TNF release were determined through Prism. • Activity: “+”>10 μM, “++”>1 μM and <10 μM, “+++”>0.1 μM and <1 μM, “++++”<0.1 μM.

Row | SMILES | IC50 [nM]
1 | Cc1cccc(CNC(=O)c2ccc3nc(-c4ccc(F)cc4)c(-c4ccc(F)cc4)nc3c2)c1 [BC18424] | 100 to 1000
2 | Cc1cccc(-c2nc3ccc(C(=O)NCCN4CCOCC4)cc3nc2-c2cccc(C)c2)c1 [BC18425] | 1000 to 10000
3 | Cc1cccc(-c2nc3ccc(C(=O)NCCN4CCCC4)cc3nc2-c2cccc(C)c2)c1 [BC18430] | 1000 to 10000
4 | O=C(NC1CCCCC1)c1ccc2nc(-c3ccc(F)cc3)c(-c3ccc(F)cc3)nc2c1 [BC18431] | 100 to 1000
5 | CCCCNC(=O)c1ccc2nc(-c3ccccc3)c(-c3ccccc3)nc2c1 [BC18432] | 100 to 1000
6 | Cc1ccc(CNC(=O)c2ccc3nc(-c4ccc(C)cc4)c(-c4ccc(C)cc4)nc3c2)cc1 [BC18433] | > 10000
7 | CCCN(Cc1ccc(C)cc1)C(=O)c1ccc2nc(-c3ccccc3)c(-c3ccccc3)nc2c1 [BC18434] | 100 to 1000
8 | O=C(NCCc1ccccc1)c1ccc2nc(-c3ccc(F)cc3)c(-c3ccc(F)cc3)nc2c1 [BC18435] | 100 to 1000
9 | Cc1cccc(-c2nc3ccc(C(=O)N4CCN(c5ncccn5)CC4)cc3nc2-c2cccc(C)c2)c1 [BC18436] | 1000 to 10000
10 | Cc1cccc(-c2nc3ccc(C(=O)NCCN4CCCCC4C)cc3nc2-c2cccc(C)c2)c1 (stereo not drawn) [BC18441] | 1000 to 10000
11 | Cc1ccc(-c2nc3ccc(C(=O)NCc4ccccc4)cc3nc2-c2ccc(C)cc2)cc1 [BC18444] | > 10000
12 | Cc1cccc(CNC(=O)c2ccc3nc(-c4ccccc4)c(-c4ccccc4)nc3c2)c1 [BC18445] | 100 to 1000
13 | Cc1cccc(-c2nc3ccc(C(=O)NCc4ccccc4)cc3nc2-c2cccc(C)c2)c1 [BC18446] | > 10000
14 | O=C(NCc1ccccn1)c1ccc2nc(-c3ccc(F)cc3)c(-c3ccc(F)cc3)nc2c1 [BC18447] | < 100
15 | O=C(NC1CC1)c1ccc2nc(-c3ccc(F)cc3)c(-c3ccc(F)cc3)nc2c1 [BC18448] | < 100
16 | O=C(NCCN1CCCC1)c1ccc2nc(-c3ccc(F)cc3)c(-c3ccc(F)cc3)nc2c1 [BC18449] | < 100
17 | CNC(=O)c1ccc2nc(-c3ccccc3)c(-c3ccccc3)nc2c1 [BC18450] | < 100
18 | O=C(c1ccc2nc(-c3ccccc3)c(-c3ccccc3)nc2c1)N1CCN(c2ccc(F)cc2)CC1 [BC18451] | 100 to 1000
19 | CCN1CCN(CCNC(=O)c2ccc3nc(-c4cccc(C)c4)c(-c4cccc(C)c4)nc3c2)CC1 [BC18452] | 1000 to 10000
20 | COc1ccc(-c2nc3ccc(C(=O)NCCN4CCOCC4)cc3nc2-c2ccc(OC)cc2)cc1 [BC18453] | 1000 to 10000
21 | CCCNC(=O)c1ccc2nc(-c3ccccc3)c(-c3ccccc3)nc2c1 [BC18454] | 100 to 1000
22 | Cc1ccc(-c2nc3ccc(C(=O)NCc4ccc(Cl)cc4)cc3nc2-c2ccc(C)cc2)cc1 [BC18455] | > 10000

Next, values leading:

Row | IC50 [nM] | SMILES
23 | < 100 | C=CCN(CC=C)C(=O)c1ccc2nc(-c3ccccc3)c(-c3ccccc3)nc2c1 [BC18423]
24 | < 100 | CCN(CC)CCNC(=O)c1ccc2nc(-c3ccc(F)cc3)c(-c3ccc(F)cc3)nc2c1 [BC18426]
25 | < 100 | CCNC(=O)c1ccc2nc(-c3ccc(F)cc3)c(-c3ccc(F)cc3)nc2c1 [BC18427]
26 | < 100 | CCN(CC)CCNC(=O)c1ccc2nc(-c3ccccc3)c(-c3ccccc3)nc2c1 [BC18428]
27 | < 100 | O=C(c1ccc2nc(-c3ccccc3)c(-c3ccccc3)nc2c1)N1CCOCC1 [BC18429]
28 | < 100 | O=C(NCCCN1CCOCC1)c1ccc2nc(-c3ccc(F)cc3)c(-c3ccc(F)cc3)nc2c1 [BC18437]
29 | < 100 | O=C(NCCCN1CCCC1)c1ccc2nc(-c3ccc(F)cc3)c(-c3ccc(F)cc3)nc2c1 [BC18438]
30 | < 100 | O=C(NC1CC1)c1ccc2nc(-c3ccccc3)c(-c3ccccc3)nc2c1 [BC18439]
31 | < 100 | CCCN1CCN(C(=O)c2ccc3nc(-c4ccccc4)c(-c4ccccc4)nc3c2)CC1 [BC18440]
32 | < 100 | CC(C)CCNC(=O)c1ccc2nc(-c3ccc(F)cc3)c(-c3ccc(F)cc3)nc2c1 [BC18442]
33 | < 100 | CC(C)NC(=O)c1ccc2nc(-c3ccccc3)c(-c3ccccc3)nc2c1 [BC18443]
